The target in this assay is T1, KCa3.1 (Homo sapiens, UniProt O15554).
T1 construct: expressed in transfected cells
Kind of assay: Whole-cell patch-clamp on HEK cells heterologously expressing KCa3.1. The format is cell-based. The settings on record: HEK293, VX-445 10 µM. How it is done:
Our Isc results are consistent with VX-445 inhibiting KCa3.1 in HBEs. To directly assess this possibility, we initially carried out whole-cell patch-clamp studies on undifferentiated HBEs. […] Upon application of 10 µM VX-445, a majority of this current was inhibited, averaging 87 ± 4% (n = 3, P < 0.005; Fig. 3B). A summary of the current–voltage (I–V) relationship—normalized to cell capacitance—is shown in Fig. 3C, which also includes the whole-cell I–V in the presence of Tram-34. […] To ensure isolation of KCa3.1 currents and to more fully characterize this VX-445-dependent inhibition of KCa3.1, we utilized HEK cells heterologously expressing KCa3.1 (HEK-KCa3.1). Initially, we confirmed our results from HBEs, using whole-cell recordings, as above. […] In seven experiments, this inhibition averaged 58 ± 7% (P < 0.005). […] It is well recognized that drugs are carried to their targets in the blood bound to albumin, which ranges from 3.4 to 5.4%. Thus, we determined whether VX-445 (10 µM) would inhibit KCa3.1 expressed in HEK cells in the presence of 3.4% albumin. In four experiments, VX-445 inhibited an average of 51 ± 17% of the whole-cell KCa3.1 current, which is not different from that observed in the absence of albumin. To confirm the direct effect of VX-445 on KCa3.1, we utilized the excised, inside-out patch-clamp technique. The patch was then exposed to DCEBIO (100 µM) to further activate the channels ([34–37])—analogous to our Isc studies in HBEs. […] In three experiments, VX-445 inhibited an average of 63 ± 6% of the KCa3.1 current. Based on these experiments, we determined the apparent inhibitory constant, Ki for VX-445. For these experiments, patches were excised into saturating Ca^2+ (3 µM) to ensure maximal KCa3.1 activation. These studies were carried out in the absence of DCEBIO to eliminate the possibility that the inhibition observed was due to competition for the DCEBIO-binding site.
HEK cells stably expressing KCa3.1 (IK1, SK4), KCa2.3 (SK3), and KCa2.2 (SK2) were generated and cultured as previously described by us ([37], [66–71]).
HEK cells expressing the channel of interest were plated onto poly-L-lysine-coated glass coverslips 1–2 days prior to patch-clamp analysis. Electrophysiological recordings in the excised, inside-out, and whole-cell patch-clamp configurations were performed as recently described ([14]). For excised patch-clamp recordings, the pipette solution contained (in mM): 140 K-gluconate, 5 KCl, 1 CaCl2, 1 MgCl2, and 10 HEPES. The pH was adjusted to 7.2 with KOH. The bath solution contained (in mM): 145 K-gluconate, 5 KCl, 1.3 MgCl2, 10 HEPES, and 1 EGTA. Sufficient CaCl2 was added to obtain the desired free Ca^2+ concentration at a pH of 7.2 (adjusted with KOH). When recording KCa3.1 channels, ATP (300 µM) was added to the bath to diminish channel rundown ([73]). All recordings were carried out at a voltage of −100 mV, referenced to the extracellular compartment, as is standard. The apparent Ki and Hill coefficient for each CFTR corrector on KCa3.1, KCa2.3, and KCa2.2 were determined during a continuous recording by step-wise addition of increasing concentrations of compound and fitting the resultant relative remaining current to a Hill equation (Prism v. 10.1.0). The zero current level was determined by the addition of a 0 Ca^2+ solution (zero-added Ca^2+ plus 1 mM EGTA) at the end of the experiment. In the case of KCa3.1, TRAM-34, a known inhibitor of KCa3.1 ([45]), was used to confirm expression of the channel. For whole-cell experiments, pipettes contained (in mM): 145 K-gluconate, 10 EGTA, 7.5 CaCl2, 2 MgCl2, 3 mM NaATP, and 10 HEPES. The bath solution contained (in mM): 140 K-gluconate, 5 KCl, 1.0 MgCl2, 10 HEPES, and 2 CaCl2. Current–voltage relationships were determined by stepping from a holding potential of −80 mV to +80 mV in 20 mV increments for 400 ms. […]

Molecules are shown by their SMILES. Where two headings read alike, the source gives them in different places.

We go through 1 compound from article PMC12275099, “VX-445 (elexacaftor) inhibits chloride secretion across human bronchial epithelial cells by directly blocking KCa3.1 channels” (PNAS Nexus, 2025).

As a reminder, the inhibition is the drop in the measured response relative to a control, in per cent. As for `Cc1nn(C)cc1S(=O)(=O)NC(=O)c1ccc(-n2ccc(OCC(C)(C)C(F)(F)F)n2)nc1N1C[C@@H](C)CC1(C)C` [VX-445, elexacaftor], the inhibition at 10 µM stood at 51 ± 17% (four experiments, read-out: inhibition of whole-cell KCa3.1 current in the presence of 3.4% albumin) and 58 ± 7% (seven experiments, read-out: inhibition of whole-cell KCa3.1 current).
